The values that follow come from US11738091B2, “Method for terminating cancer cells with an azole-based compound” (Imam Abdulrahman Bin Faisal University, priority 2019, dated 2023).

The subject of test [1] is HCT-116 cells. Briefly: MTT assay of cancer cell viability. To be noted: for attenuating cancer cells proliferation (in words) / effect on cancer cell survivability (in words) / comparison among the five conjugates in decreasing cancer cells proliferation: HCT-116; for dose dependence of effect on cancer cells viability: HCT-116, MTT staining; for comparison among the five conjugates in decreasing cancer cells proliferation: versus Conj. 1, Conj. 2 and Conj. 5. The procedure: CANCER CELL TREATMENTS: Human colorectal carcinoma cells (HCT-116) cells were grown according to a method described in Khan, F. A.; Akhtar, S.; Almohazey, D.; Alomari, M.; Almofty, S. A.; Eliassari, A. “Fluorescent magnetic submicronic polymer (FMSP) nanoparticles induce cell death in human colorectal carcinoma cells” Artif Artif. Cells, Nanomed., Biotechnol. 2018, (doi: 10.1080/21691401.2018.1491476). HCT-116 cells were grown in Dulbecco Modified Eagle Medium (DMEM), 10% fetal bovine serum, L-glutamine, selenium chloride, penicillin, and streptomycin. The cells were cultured in a CO2 incubator (Heracell 150i, Thermo-scientific, USA) at 37° C. under 5% CO2 for 48 to 72 hours. Confluenced cells were seeded into 96-well cell plates and, once the cells became 80% confluenced, the cancer cells were treated with different concentrations ([…]) of Conj. 1, Conj. 2, Conj. 3, Conj. 4, Conj. 5 respectively. […] Each sample was taken in triplicate to obtain a statistical analysis.
CANCER CELLS VIABILITY BY MTT ASSAY: To examine effect of Conj. 1, Conj. 2, Conj. 3, Conj. 4, Conj. 5 on cancer cells, a 3-(4,5-dimethylthiazol-2-yl)-2,5-diphenyltetrazolium bromide (MTT) assay was conducted on the cells. The cancer cells were seeded at 6×10^4 cells/mL concentration in 96-well culture plates containing DMEM, 10% Fetal bovine serum, penicillin, and streptomycin and were incubated in CO2 incubator until the cells were 80% confluenced. The cancer cells were then treated with Conj. 1, Conj. 2, Conj. 3, Conj. 4, Conj. 5 at concentrations of 1.3, 3.26, and 6.5 mg/mL, whereby no conjugate was added in the control groups. A 5.0 mg/mL MTT solution was added into each well, and the cells were again incubated for 4 hours in the CO2 incubator and finally media was changed with the addition of DMSO. The samples were then measured using an ELISA plate reader (Biotek Instruments, USA) at wavelength 570 nm.
The following formula was used to calculate percentage of cell viability: % of Cell viability=[Optical density (O.D) of Conj. 1, Conj. 2, Conj. 3, Conj. 4, or Conj. 5 cells]/[Optical density (O.D) of control cells]×100.
1, Conj. 2, Conj. 3, Conj. 4, Conj. 5 treated groups were calculated. All statistical analyses were completed with GraphPad Prism 6 (GraphPad Software). The difference between control and Conj. 1, Conj. 2, Conj. 3, Conj. 4, Conj. 5 groups by a one-way ANOVA test (*p<0.05, **p<0.01; ***p<0.001) was taken as statistically significant.
A general note: Tetrazolium assays rely on reduction of a dye to a coloured formazan, in cell work by metabolically active cells.

Test [2] deals with HCT-116 cells. Briefly: Cancer cell morphology by inverted microscope. Format: cell-based, human. To be noted: 48 hours, 200x magnification. The text has this:
Cells, Nanomed., Biotechnol. 2018, (doi: 10.1080/21691401.2018.1491476). […] 1, Conj. 2, Conj. 3, Conj. 4, Conj. 5 respectively.
CANCER CELL MORPHOLOGY: After the treating the HTC-116 cells with Conj. 1, Conj. 2, Conj. 3, Conj. 4, Conj. 5, the cells were observed using an inverted microscope (TS100F Eclipse, Nikon, Japan) to evaluate the anatomical and morphological changes.

Turning to SiO2-3GPS-Atri [Conj. 2], in the test on HCT-116 cells [1], the “attenuating cancer cells proliferation (in words)” value is reported as “highly effective”, the “effect on cancer cell survivability (in words)” value (“effect … (in words)” for short) is on record as “profound effects” and the “dose dependence of effect on cancer cells viability” value (from here on “dose dependence of effect”) was “dose dependent effects”. Further, the cancer cell morphology entry in the test on HCT-116 cells [2] (HCT-116, 1.3 mg/mL) is “strong nucleus condensation and nuclear augmentation”. In addition, the cancer cell morphology result in the test with HCT-116 cells [2] (HCT-116, 3.26 mg/mL) is “further nucleus condensation and augmentation”. Further, in the test on HCT-116 cells [2] (HCT-116, 6.5 mg/mL), the cancer cell morphology result is given as “significant loss of cell population”.
As to SiO2-3GPS-Tri [Conj. 1], the “attenuating cancer cells proliferation (in words)” value with HCT-116 cells [1] is on record as “highly effective”. The “effect … (in words)” value with HCT-116 cells [1] is listed as “profound effects”. In the test on HCT-116 cells [1], the “dose dependence of effect” value is listed as “dose dependent effects”. For the same substance, the cancer cell morphology result in the test with HCT-116 cells [2] (HCT-116, 1.3 mg/mL) is “strong nucleus condensation and nuclear augmentation”; with HCT-116 cells [2] (HCT-116, 3.26 mg/mL) it was “further nucleus condensation and augmentation”; in the test on HCT-116 cells [2] (HCT-116, 6.5 mg/mL), “significant loss of cell population”.
For SiO2-3GPS-Imi [Conj. 5], in the test with HCT-116 cells [1], the “attenuating cancer cells proliferation (in words)” value is “highly effective”, the “effect … (in words)” value is given as “profound effects” and the “dose dependence of effect” value is reported as “dose dependent effects”. For the same substance, the cancer cell morphology result with HCT-116 cells [2] (HCT-116, 1.3 mg/mL) is “high levels of nucleus condensation and nuclear augmentation”. Moreover, the cancer cell morphology entry with HCT-116 cells [2] (HCT-116, 3.26 mg/mL) was “strong nuclear condensation and augmentation and the beginning of cell membrane disruption and cell death”. The cancer cell morphology entry with HCT-116 cells [2] (HCT-116, 6.5 mg/mL) was “significant loss of cell population”.
As to SiO2-3GPS-Atet [Conj. 3], in the test with HCT-116 cells [1], the “attenuating cancer cells proliferation (in words)” value is “highly effective”, the “effect … (in words)” value was “profound effects”, the “dose dependence of effect” value is on record as “dose dependent effects” and the “comparison among the five conjugates in decreasing cancer cells proliferation” value is listed as “more effective”. In addition, the cancer cell morphology entry with HCT-116 cells [2] (HCT-116, 1.3 mg/mL) was “significant levels of nucleus condensation and nuclear augmentation”. Moreover, the cancer cell morphology result in the test on HCT-116 cells [2] (HCT-116, 3.26 mg/mL) was “nuclear condensation and augmentation of cancer cells”. Also, the cancer cell morphology entry in the test with HCT-116 cells [2] (HCT-116, 6.5 mg/mL) is on record as “significant loss of cell population”.
For the substance SiO2-3GPS-Btri [Conj. 4], in the test on HCT-116 cells [1], the “attenuating cancer cells proliferation (in words)” value is “highly effective”, the “effect … (in words)” value is on record as “profound effects”, the “dose dependence of effect” value is recorded as “dose dependent effects” and the “comparison among the five conjugates in decreasing cancer cells proliferation” value was “more effective”. In the test with HCT-116 cells [2] (HCT-116, 1.3 mg/mL), the cancer cell morphology entry is reported as “disintegration of cancer cell bodies”. Besides, in the test with HCT-116 cells [2] (HCT-116, 3.26 mg/mL), the cancer cell morphology entry was “strong nuclear condensation and augmentation”. Moreover, in the test with HCT-116 cells [2] (HCT-116, 6.5 mg/mL), the cancer cell morphology entry was “strong nuclear condensation and augmentation”.
